PubChem BioAssay AID2060902 (Molecular Pharmacology Branch, DTP, NCI, 2025)

Tested on: 485368-065-R3-J5-PDC spheroids with HUVEC/MSC, viability
Test: Anticancer human tumor 485368-065-R3-J5-PDC patient-derived pancreatic carcinoma cell line growth inhibition [RAS]
Conditions: for IC50: curve of first compound; for viability, T/C: stronger effect = lower value
How it was run: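 Agents were tested in combination matrices in half-log decrements from a top concentration at or near clinical Cmax (10 microM if undetermined). Targets were multi-cell spheroids of tumour lines plus HUVEC and MSC stromal cells.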

[1] = second compound 0.000949 µM, first compound 0.0316 µM
[2] = second compound 0.000949 µM, first compound 0.1 µM
[3] = second compound 0.000949 µM, first compound 0.316 µM
[4] = second compound 0.000949 µM, first compound 1 µM
[5] = second compound 0.003 µM, first compound 0.0316 µM
[6] = second compound 0.003 µM, first compound 0.1 µM
[7] = second compound 0.003 µM, first compound 0.316 µM
[8] = second compound 0.003 µM, first compound 1 µM
[9] = second compound 0.00949 µM, first compound 0.0316 µM
[10] = second compound 0.00949 µM, first compound 0.1 µM
[11] = second compound 0.00949 µM, first compound 0.316 µM
[12] = second compound 0.00949 µM, first compound 1 µM
[13] = second compound 0.03 µM, first compound 0.0316 µM
[14] = second compound 0.03 µM, first compound 0.1 µM
[15] = second compound 0.03 µM, first compound 0.316 µM
[16] = second compound 0.03 µM, first compound 1 µM
[17] = second compound 0.0949 µM, first compound 0.0316 µM
[18] = second compound 0.0949 µM, first compound 0.1 µM
[19] = second compound 0.0949 µM, first compound 0.316 µM
[20] = second compound 0.0949 µM, first compound 1 µM
[21] = second compound 0.3 µM, first compound 0.0316 µM
[22] = second compound 0.3 µM, first compound 0.1 µM
[23] = second compound 0.3 µM, first compound 0.316 µM
[24] = second compound 0.3 µM, first compound 1 µM
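Further: spheroids exposed to agents for seven days before readout.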

Structure (SMILES): CC(=O)OC12COC1CC(O)C1(C)C(=O)C(O)C3=C(C)C(OC(=O)C(O)C(NC(=O)OC(C)(C)C)c4ccccc4)CC(O)(C(OC(=O)c4ccccc4)C21)C3(C)C (stereo unspecified) + CCn1c(-c2cc(N3CCN(C)CC3)cnc2C(C)OC)c2c3cc(ccc31)-c1csc(n1)CC(NC(=O)C1CC1C)C(=O)N1CCCC(N1)C(=O)OCC(C)(C)C2
- IC50 (second compound 0.000949 µM): < 31.6 nM
- IC50 (second compound 0.003 µM): < 31.6 nM
- IC50 (second compound 0.00949 µM): < 31.6 nM
- IC50 (second compound 0.03 µM): < 31.6 nM
- IC50 (second compound 0.0949 µM): < 31.6 nM
- IC50 (second compound 0.3 µM): < 31.6 nM
- viability, T/C [1]: 11.7%
- viability, T/C [2]: 10.4%
- viability, T/C [3]: 12.1%
- viability, T/C [4]: 14.3%
- viability, T/C (second compound 0.000949 µM, first compound 3.16 µM): 15.2%
- viability, T/C (second compound 0.000949 µM, first compound 10 µM): 19.9%
- viability, T/C [5]: 10.7%
- viability, T/C [6]: 13.2%
- viability, T/C [7]: 12.2%
- viability, T/C [8]: 14.1%
- viability, T/C (second compound 0.003 µM, first compound 3.16 µM): 15.3%
- viability, T/C (second compound 0.003 µM, first compound 10 µM): 13.6%
- viability, T/C [9]: 9.77%
- viability, T/C [10]: 12.6%
- viability, T/C [11]: 10%
- viability, T/C [12]: 8.97%
- viability, T/C (second compound 0.00949 µM, first compound 3.16 µM): 11.4%
- viability, T/C (second compound 0.00949 µM, first compound 10 µM): 10.5%
- viability, T/C [13]: 7.89%
- viability, T/C [14]: 8.87%
- viability, T/C [15]: 8.33%
- viability, T/C [16]: 9.73%
- viability, T/C (second compound 0.03 µM, first compound 3.16 µM): 10.6%
- viability, T/C (second compound 0.03 µM, first compound 10 µM): 10.7%
- viability, T/C [17]: 7.57%
- viability, T/C [18]: 8.27%
- viability, T/C [19]: 7.87%
- viability, T/C [20]: 7.97%
- viability, T/C (second compound 0.0949 µM, first compound 3.16 µM): 10.9%
- viability, T/C (second compound 0.0949 µM, first compound 10 µM): 8.11%
- viability, T/C [21]: 7.3%
- viability, T/C [22]: 7.09%
- viability, T/C [23]: 7.44%
- viability, T/C [24]: 8.55%
- viability, T/C (second compound 0.3 µM, first compound 3.16 µM): 10.2%
- viability, T/C (second compound 0.3 µM, first compound 10 µM): 6.81%

Structure (SMILES): CCc1c2c(nc3ccc(O)cc13)-c1cc3c(c(=O)n1C2)COC(=O)[C@]3(O)CC + CCn1c(-c2cc(N3CCN(C)CC3)cnc2C(C)OC)c2c3cc(ccc31)-c1csc(n1)CC(NC(=O)C1CC1C)C(=O)N1CCCC(N1)C(=O)OCC(C)(C)C2
- IC50 (second compound 0.000949 µM): < 0.949 nM
- IC50 (second compound 0.003 µM): < 0.949 nM
- IC50 (second compound 0.00949 µM): < 0.949 nM
- IC50 (second compound 0.03 µM): < 0.949 nM
- IC50 (second compound 0.0949 µM): < 0.949 nM
- IC50 (second compound 0.3 µM): < 0.949 nM
- viability, T/C (second compound 0.000949 µM, first compound 0.000949 µM): 29.2%
- viability, T/C (second compound 0.000949 µM, first compound 0.003 µM): 19.3%
- viability, T/C (second compound 0.000949 µM, first compound 0.00949 µM): 12.3%
- viability, T/C (second compound 0.000949 µM, first compound 0.03 µM): 6.49%
- viability, T/C (second compound 0.000949 µM, first compound 0.0949 µM): 3.81%
- viability, T/C (second compound 0.000949 µM, first compound 0.3 µM): 3.85%
- viability, T/C (second compound 0.003 µM, first compound 0.000949 µM): 17.6%
- viability, T/C (second compound 0.003 µM, first compound 0.003 µM): 13.6%
- viability, T/C (second compound 0.003 µM, first compound 0.00949 µM): 9.1%
- viability, T/C (second compound 0.003 µM, first compound 0.03 µM): 7.85%
- viability, T/C (second compound 0.003 µM, first compound 0.0949 µM): 5.44%
- viability, T/C (second compound 0.003 µM, first compound 0.3 µM): 3.67%
- viability, T/C (second compound 0.00949 µM, first compound 0.000949 µM): 15.4%
- viability, T/C (second compound 0.00949 µM, first compound 0.003 µM): 11.8%
- viability, T/C (second compound 0.00949 µM, first compound 0.00949 µM): 8.19%
- viability, T/C (second compound 0.00949 µM, first compound 0.03 µM): 7.82%
- viability, T/C (second compound 0.00949 µM, first compound 0.0949 µM): 5.53%
- viability, T/C (second compound 0.00949 µM, first compound 0.3 µM): 6.59%
- viability, T/C (second compound 0.03 µM, first compound 0.000949 µM): 9.82%
- viability, T/C (second compound 0.03 µM, first compound 0.003 µM): 8.14%
- viability, T/C (second compound 0.03 µM, first compound 0.00949 µM): 6.87%
- viability, T/C (second compound 0.03 µM, first compound 0.03 µM): 8.66%
- viability, T/C (second compound 0.03 µM, first compound 0.0949 µM): 5.8%
- viability, T/C (second compound 0.03 µM, first compound 0.3 µM): 7.18%
- viability, T/C (second compound 0.0949 µM, first compound 0.000949 µM): 8.87%
- viability, T/C (second compound 0.0949 µM, first compound 0.003 µM): 8.54%
- viability, T/C (second compound 0.0949 µM, first compound 0.00949 µM): 6.42%
- viability, T/C (second compound 0.0949 µM, first compound 0.03 µM): 6.3%
- viability, T/C (second compound 0.0949 µM, first compound 0.0949 µM): 6.27%
- viability, T/C (second compound 0.0949 µM, first compound 0.3 µM): 5.48%
- viability, T/C (second compound 0.3 µM, first compound 0.000949 µM): 7.33%
- viability, T/C (second compound 0.3 µM, first compound 0.003 µM): 9.17%
- viability, T/C (second compound 0.3 µM, first compound 0.00949 µM): 6.28%
- viability, T/C (second compound 0.3 µM, first compound 0.03 µM): 5.07%
- viability, T/C (second compound 0.3 µM, first compound 0.0949 µM): 5.93%
- viability, T/C (second compound 0.3 µM, first compound 0.3 µM): 5.26%

Structure (SMILES): Nc1ccn(C2OC(CO)C(O)C2(F)F)c(=O)n1 (stereo unspecified) + CCn1c(-c2cc(N3CCN(C)CC3)cnc2C(C)OC)c2c3cc(ccc31)-c1csc(n1)CC(NC(=O)C1CC1C)C(=O)N1CCCC(N1)C(=O)OCC(C)(C)C2
- IC50 (second compound 0.000949 µM): < 3.16 nM
- IC50 (second compound 0.003 µM): < 3.16 nM
- IC50 (second compound 0.00949 µM): < 3.16 nM
- IC50 (second compound 0.03 µM): < 3.16 nM
- IC50 (second compound 0.0949 µM): < 3.16 nM
- IC50 (second compound 0.3 µM): < 3.16 nM
- viability, T/C (second compound 0.000949 µM, first compound 0.00316 µM): 31%
- viability, T/C (second compound 0.000949 µM, first compound 0.01 µM): 15.8%
- viability, T/C [1]: 8.79%
- viability, T/C [2]: 6.33%
- viability, T/C [3]: 6.11%
- viability, T/C [4]: 5.93%
- viability, T/C (second compound 0.003 µM, first compound 0.00316 µM): 18.5%
- viability, T/C (second compound 0.003 µM, first compound 0.01 µM): 12.8%
- viability, T/C [5]: 9.81%
- viability, T/C [6]: 6.58%
- viability, T/C [7]: 9.3%
- viability, T/C [8]: 6.96%
- viability, T/C (second compound 0.00949 µM, first compound 0.00316 µM): 13.5%
- viability, T/C (second compound 0.00949 µM, first compound 0.01 µM): 10.9%
- viability, T/C [9]: 9.06%
- viability, T/C [10]: 8.14%
- viability, T/C [11]: 8.28%
- viability, T/C [12]: 7.89%
- viability, T/C (second compound 0.03 µM, first compound 0.00316 µM): 10.7%
- viability, T/C (second compound 0.03 µM, first compound 0.01 µM): 11%
- viability, T/C [13]: 7.61%
- viability, T/C [14]: 6.76%
- viability, T/C [15]: 7.98%
- viability, T/C [16]: 6.7%
- viability, T/C (second compound 0.0949 µM, first compound 0.00316 µM): 9.63%
- viability, T/C (second compound 0.0949 µM, first compound 0.01 µM): 8.06%
- viability, T/C [17]: 7.29%
- viability, T/C [18]: 5.92%
- viability, T/C [19]: 6.25%
- viability, T/C [20]: 6.08%
- viability, T/C (second compound 0.3 µM, first compound 0.00316 µM): 6.95%
- viability, T/C (second compound 0.3 µM, first compound 0.01 µM): 7.22%
- viability, T/C [21]: 7.67%
- viability, T/C [22]: 5.52%
- viability, T/C [23]: 7.58%
- viability, T/C [24]: 6.63%
